This note sets out measurements from patent US20060247320A1, “Compounds for inhibiting KSP kinesin activity” (priority 2005, published 2006).

The first assay deals with T1, KSP motor domain (Homo sapiens, UniProt P52732).
T1 sequence (P52732 18-359 limits assumed): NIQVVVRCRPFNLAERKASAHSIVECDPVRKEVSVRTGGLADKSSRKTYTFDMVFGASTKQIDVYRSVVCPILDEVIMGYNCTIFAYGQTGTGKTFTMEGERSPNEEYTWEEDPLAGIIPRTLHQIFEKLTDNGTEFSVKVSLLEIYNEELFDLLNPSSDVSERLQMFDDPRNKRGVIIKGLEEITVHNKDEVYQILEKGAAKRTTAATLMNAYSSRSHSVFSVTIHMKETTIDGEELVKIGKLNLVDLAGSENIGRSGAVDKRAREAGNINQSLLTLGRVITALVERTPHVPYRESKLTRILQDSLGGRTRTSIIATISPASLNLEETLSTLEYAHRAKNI
Briefly: biochemical. The settings on record: KSP inhibitory activity, end-point assay; class symbols (Table 1).
As for `CC(C)(C)C1CCc2nc3sc(NC=O)nc3cc2C1` (stereo not shown) [Example 134, N-(7-tert-Butyl-5,6,7,8-tetrahydrothiazolo[5,4-b]quinolin-2-yl)-formamide], the “IC50 (nM)” value is listed as “B/C”.

As to `C[C@@H](CO)NC(=O)c1cc2cc3c(nc2s1)CCC([Si](C)(C)C)C3` (stereo partly drawn) [Example 190, 5,6,7,8-Tetrahydro-N-(2-hydroxy-1(S)-methylethyl)-6-(Trimethylsilyl)thieno[2,3-b]quinoline-2-Carboxamide], the “IC50 (nM)” value is “B/C”.

The assay is the same for the next values; noted with them: KSP inhibitory activity, end-point assay; class symbols (Table 1); read-out: IC50.
For orientation: IC50 means the point on the concentration scale where inhibition reaches its midpoint. With `CC(C)(C)[C@@H]1CCc2nc3sc(C(=O)N[C@H](CN)c4cccc(NC(=O)c5cncc(N)n5)c4)cc3cc2C1` [Example 260], the IC50 was < 100 nM.

Regarding `CC(C)(C)[C@@H]1CCc2nc3sc(C(=O)N[C@H](CN)c4cccc(NC(=O)c5nccnc5N)c4)cc3cc2C1` [Example 261], the IC50 is < 100 nM.

As to `CC(C)(C)C1CCc2nc3sc(C(=O)N[C@H](C#N)Cc4ccccc4)cc3cc2C1` (stereo partly drawn) [Example 163, 6-tert-Butyl-5,6,7,8-tetrahydrothieno[2,3-b]quinoline-2-carboxylic acid [(1S)-1-cyano-2-phenylethyl)amide], the IC50 was > 10000 nM.

As for `C[C@@H]1CN[C@@H](C)CN1C(=O)Nc1cccc([C@@H](CN)NC(=O)c2cc3cc4c(nc3s2)CC[C@@H](C(C)(C)C)C4)c1` [Example 278], the IC50 was in the range of 100 to 1000 nM.

Consider `CC(C)(C)C1CCc2cc3cc(C(N)=O)sc3nc2CC1` (stereo not shown) [Example 66], for which the IC50 was in the range of 1000 to 10000 nM.

Consider `Cn1nccc1C(=O)Nc1cccc([C@@H](CNCCO)NC(=O)c2cc3cc4c(nc3s2)CC[C@@H](C(C)(C)C)C4)c1` [Example 267], for which the IC50 lay in the range of 100 to 1000 nM.

Turning to `CC(C)(C)C1CCc2nc3sc(C(=O)N[C@H]4CCC[C@@H]4O)cc3cc2C1` (stereo partly shown) [Example 86], the IC50 is 1000 to 10000 nM.

Regarding `CC(C)(C)C1CCc2nc3sc(CNC(N)=O)cc3cc2C1` (stereo not shown) [Example 156], the IC50 fell in the range of 100 to 1000 nM.

For the molecule `CC(C)(C)C1CCc2nc3sc(CCl)cc3cc2C1` (stereo not shown) [Example 145], the IC50 is 100 to 1000 nM.

Consider `CC(C)(C)C1CCc2nc3sc(NC(N)=O)nc3cc2C1` (stereo not shown) [Example 132, (7-tert-Butyl-5,6,7,8-tetrahydrothiazolo[5,4-b]quinolin-2-yl)-urea], for which the IC50 lay in the range of 1000 to 10000 nM.

For the molecule `CNCc1cc2cc3c(nc2s1)CCC(C(C)(C)C)C3` (stereo not shown) [Example 151], the IC50 lay in the range of 1000 to 10000 nM.

For the molecule `CC(C)(C)C1CCc2nc3sc(C(=O)NCCCN)cc3cc2C1` (stereo not shown) [Example 101], the IC50 is 100 to 1000 nM.

For the molecule `CC(C)(C)[C@@H]1CCc2nc3sc(C(=O)N[C@H](CN)c4cccc(NC(=O)c5ncco5)c4)cc3cc2C1` [Example 263, 6-tert-butyl-5,6,7,8-tetrahydrothieno[2,3-b]quinoline-2-carboxylic acid (2-amino-1-{3-[(oxazole-2-carbonyl)amino]phenyl}ethyl)amide], the IC50 is < 100 nM.

As for `CC(C)(C)C1CCc2nc3sc(C(=O)NCC(=N)N)cc3cc2C1` (stereo not shown) [Example 168, 6-tert-Butyl-5,6,7,8-tetrahydrothieno[2,3-b]quinoline-2-carboxylic acid carbamimidoylmethylamide], the IC50 is < 100 nM.

For `Cn1nccc1C(=O)Nc1cccc([C@@H](CN)NC(=O)c2cc3cc4c(nc3s2)CC[C@@H](C(C)(C)C)C4)c1` [Example 238], the IC50 is < 100 nM.

As to `CC(C)(C)C1CCc2nc3sc(C(=O)NC(CO)CO)cc3cc2C1` (stereo not shown) [Example 96], the IC50 fell in the range of 100 to 1000 nM.

In the case of `CC(C)(C)C1CCc2nc3sc(C(=O)N4C[C@H](O)C[C@@H]4C(=O)O)cc3cc2C1` (stereo partly shown) [Example 93], the IC50 is > 10000 nM.

On to `COc1ccc([C@@H](CN)NC(=O)c2cc3cc4c(nc3s2)CCC(C(C)(C)C)C4)cc1` (stereo partly shown) [Example 219], for which the IC50 is < 100 nM.

For the molecule `CC(C)(C)C1CCc2nc3sc(C(=O)N[C@H](C#N)c4ccccc4)cc3cc2C1` (stereo partly shown) [Example 165], the IC50 is > 10000 nM.

In the case of `Cn1cc(C(=O)Nc2cccc([C@@H](CN)NC(=O)c3cc4cc5c(nc4s3)CC[C@@H](C(C)(C)C)C5)c2)cn1` [Example 240], the IC50 was < 100 nM.

Turning to `CC(C)(C)[C@@H]1CCc2nc3sc(C(=O)N[C@H](CN)c4cccc(NC(=O)c5ccc[nH]5)c4)cc3cc2C1` [Example 252], the IC50 is < 100 nM.

Turning to `CC(C)CCC1CCc2nc3sc(C#N)c(N)c3cc2C1` (stereo not shown) [Example 20], the IC50 is > 10000 nM.

For the molecule `CCC1Cc2nc3sc(C#N)cc3cc2CC1C(C)(C)C` (stereo not shown) [Example 206, 6-tert-Butyl-7-ethyl-5,6,7,8-tetrahydro-thieno[2,3,-b]quinoline-2-carbonitrile], the IC50 fell in the range of 1000 to 10000 nM.

With `CC(C)(C)C1CCc2nc3sc(-c4ncc[nH]4)cc3cc2C1` (stereo not shown) [Example 181, 6-tert-Butyl-2-(1H-imidazol-2-yl)-5,6,7,8-tetrahydrothieno[2,3-b]quinoline], the IC50 was 100 to 1000 nM.

As for `CC(C)(C)C1CCc2nc3sc(C(=O)N[C@H](CN)c4ccsc4)cc3cc2C1` (stereo partly drawn) [Example 284, 6-tert-butyl-5,6,7,8-tetrahydro-thieno[2,3-b]quinoline-2-carboxylic acid (2-amino-1(S)-thiophen-3-yl-ethyl)-amide], the IC50 was < 100 nM.

Regarding `Cn1cnc(C(=O)Nc2cccc([C@@H](CN)NC(=O)c3cc4cc5c(nc4s3)CC[C@@H](C(C)(C)C)C5)c2)c1` [Example 249], the half-inhibitory concentration (IC50) was < 100 nM.

For `CC(C)(C)C1CCc2nc3sc(C(=O)Nc4ccc(O)cc4N)cc3cc2C1` (stereo not shown) [Example 226G], the IC50 was 100 to 1000 nM.

Consider `CC(C)(C)CC(C)(C)C1CCc2nc3sc(C#N)c(N)c3cc2C1` (stereo not shown) [Example 11], for which the IC50 is > 10000 nM.

Regarding `C[C@@H](CN)NC(=O)c1cc2cc3c(nc2s1)CCC(C(C)(C)C)C3` (stereo partly shown) [Example 176], the IC50 was < 100 nM.

`CCC(C)C1CCc2nc3sc(C#N)c(N)c3cc2C1` (stereo not shown) [Example 21]: the IC50 was 1000 to 10000 nM.

On to `CC1CCc2nc3sc(C#N)c(N)c3cc2C1` (stereo not shown) [Example 13], for which the IC50 was > 10000 nM.

`CC(C)(C)C1CCc2nc3sc(C(=O)Nc4ccncc4N)cc3cc2C1` (stereo not shown) [Example 226E]: the half-inhibitory concentration (IC50) lay in the range of 100 to 1000 nM.

As for `CCCC1(CCC)CCc2nc3sc(C#N)c(N)c3cc2C1` [Example 16], the IC50 was > 10000 nM.

With `CC(C)(C)C1CCc2nc3sc(C(=O)N4CCC[C@@H]4C(=O)O)cc3cc2C1` (stereo partly shown) [Example 88], the IC50 was > 10000 nM.

`CC(C)C(C(C)C)C1CCc2nc3sc(C#N)c(N)c3cc2C1` (stereo not shown) [Example 24]: the IC50 is 1000 to 10000 nM.

For `CCC1CCc2nc3sc(C#N)c(N)c3cc2C1` (stereo not shown) [Example 17], the IC50 is 1000 to 10000 nM.

In the case of `CC(=O)Nc1cc2cc3c(nc2s1)CCC(C(C)(C)C)C3` (stereo not shown) [Example 124, N-(6-tert-Butyl-5,6,7,8-tetrahydrothieno[2,3-b]quinolin-2-yl)acetamide], the IC50 was 1000 to 10000 nM.

`CC(C)(C)C1CCc2nc3sc(CN)cc3cc2C1` (stereo not shown) [Example 153]: the IC50 fell in the range of 1000 to 10000 nM.

Take `N#Cc1sc2nc3c(cc2c1N)CC(=O)CC3` [Example 53]: the IC50 is > 10000 nM.

Take `CC(C)(C)C1CCc2cc3c(N)c(C#N)sc3nc2CC1` (stereo not shown) [Example 41]: the IC50 fell in the range of 1000 to 10000 nM.

Regarding `CC(C)C1Cc2cc3cc(C#N)sc3nc2CC1C` (stereo not shown) [Example 208, 6-isopropyl-7-methyl-5,6,7,8-tetrahydro-thieno[2,3,-b]quinoline-2-carbonitrile], the IC50 was 100 to 1000 nM.

`C/C=C/C=C1\CCc2nc3sc(C#N)c(N)c3cc2C1` [Example 35]: the IC50 was > 10000 nM.

With `CC(C)(C)C1CCc2nc3sc(C(=O)NCC4CCNCC4)cc3cc2C1` (stereo not shown) [Example 195, 6-(1,1-Dimethylethyl)-5,6,7,8-Tetrahydro-N-(4-Piperidinylmethyl)thieno[2,3-b]quinoline-2-Carboxamide], the IC50 was 1000 to 10000 nM.

Regarding `N#Cc1sc2nc3c(cc2c1N)CN(CCC(F)(F)F)CC3` [Example 57], the IC50 is > 10000 nM.

With `CC(C)[C@H](NC(=O)c1cc2cc3c(nc2s1)CCC(C(C)(C)C)C3)C(=N)N` (stereo partly shown) [Example 171], the IC50 is 1000 to 10000 nM.

Consider `CC(CO)NC(=O)c1cc2cc3c(nc2s1)CCC(C(C)(C)C)C3` (stereo not shown) [Example 83], for which the IC50 lay in the range of 100 to 1000 nM.

For `CC(C)(C)C1CCc2nc3sc(C(=O)N[C@H](CN)Cc4ccc(O)cc4)cc3cc2C1` (stereo partly shown) [Example 180], the IC50 lay within 100 to 1000 nM.

Consider `COC(=O)[C@H]1C[C@@H](O)CN1C(=O)c1cc2cc3c(nc2s1)CCC(C(C)(C)C)C3` (stereo partly shown) [Example 92], for which the IC50 is > 10000 nM.

Turning to `CC(C)(C)[C@@H]1CCc2nc3sc(C(=O)N[C@H](CN)c4cccc(NC(=O)c5c[nH]cn5)c4)cc3cc2C1` [Example 248], the IC50 was < 100 nM.

Take `CC(CO)NC(=O)c1cc2cc3c(nc2s1)CCC(C(C)(C)C)C3` (stereo not shown) [Example 76]: the IC50 is 1000 to 10000 nM.

As for `CCOC(=O)Nc1cccc(C(CN)NC(=O)c2cc3cc4c(nc3s2)CCC(C(C)(C)C)C4)c1` (stereo not shown) [Example 223, (3-{2-amino-1-[(6-tert-butyl-5,6,7,8-tetrahydrothieno[2,3-b]quinoline-2-carbonyl)amino]ethyl}phenyl)carbamic acid ethyl ester], the IC50 is < 100 nM.

Consider `CC(C)(C)C1CCc2nc3sc(C(=O)N[C@H](CN)c4ccccc4)nc3cc2C1` (stereo partly drawn) [Example 225, 6-tert-butyl-5,6,7,8-tetrahydro-thiazolo[5,4-b]quinoline-2-carboxylic acid [2(S)-amino-1-phenyl-ethyl]-amide], for which the IC50 was < 100 nM.

For the molecule `CC(C)(C)C1CCc2nc3sc(C(=O)NC(CO)(CO)CO)cc3cc2C1` (stereo not shown) [Example 98], the IC50 fell in the range of 1000 to 10000 nM.

Take `CC(=O)Nc1nc2cc3c(nc2s1)CCC(C(C)(C)C)C3` (stereo not shown) [Example 135, N-(7-tert-Butyl-5,6,7,8-tetrahydrothiazolo[5,4-b]quinolin-2-yl)acetamide]: the IC50 lay in the range of 100 to 1000 nM.

Still in this assay, the particulars now being: exact IC50 values, end-point assay (Table 2); read-out: IC50.
Turning to `CC(C)(C)C1CCc2nc3sc(C(=O)NCC(=N)N)cc3cc2C1` (stereo not shown) [Example 168, 6-tert-Butyl-5,6,7,8-tetrahydrothieno[2,3-b]quinoline-2-carboxylic acid carbamimidoylmethylamide], the IC50 was found to be 8 nM.

Turning to `CC(C)(C)C1CCc2nc3sc(C(=O)N[C@H](CN)c4ccsc4)cc3cc2C1` (stereo partly drawn) [Example 284, 6-tert-butyl-5,6,7,8-tetrahydro-thieno[2,3-b]quinoline-2-carboxylic acid (2-amino-1(S)-thiophen-3-yl-ethyl)-amide], the IC50 is 8 nM.
